Data as given in patent US4372961A, “Derivatives of rifamycins, their preparation and pharmaceutical compositions thereof” (priority 1980, dated 1983).
Values after ≈ are worked out from the molar mass of the structure shown.

Tested on: Staphylococcus aureus
Assay: antibiotic activity (MIC) on Staphylococcus aureus
Format: cell-based

CO[C@H]1/C=C/O[C@@]2(C)Oc3c(C)c(O)c4c(O)c(c(/C=N/N5CCN(C)CC5)c(O)c4c3C2=O)NC(=O)/C(C)=C\C=C\[C@H](C)[C@H](O)[C@@H](C)[C@@H](O)[C@@H](C)[C@H](OC(C)=O)[C@@H]1C [rifampicin]
MIC: ~0.01 µg/mL (≈ 0.0122 µM)
